The test system of one data set is MC3T3-E1. In words: Cytotoxicity test (MTT), MC3T3-E1. The data set is classed as cell-based. To be noted: 10^−6 M, cultured for 72 hrs, in comparison with the control group. As for the experimental part: (§1) The cytotoxic effect of the benzamidine derivative of the present invention was evaluated by carrying out the experiment described below.
(§2) The test substance was diluted in an appropriate solvent at a concentration of 10^−2 M. This substance was diluted in an appropriate culture medium for the cells used in the cytotoxicity test to a concentration of 10^−6M, and loaded into a 96-well plate in 100 μl per well. The cell lines to be used in the cytotoxicity test were plated on a 96-well plate in a dose of 1.0×10^4 cell/100 μl per well, and cultured for 72 hrs. 25 μl of MTT[3-(4,5-dimethyl-2-thiazolyl)-2,5-diphenyl-2H-tetrazolium bromide] dissolved in PBS (2 mg/mL) were added before 4 hrs of the end of culture. After completion of the reaction, the plates were centrifuged, the medium was discarded and 100 μl of DMSO was added to dissolve formazan. Finally, the absorbance of the developed plates was measured at 540 nm. The survival rates of the cells were expressed as % concentration values in comparison with the control group.

Data set [1] deals with osteoclast differentiation. In words: Inhibitory effects on osteoclast differentiation (bone marrow cell/osteoblast co-culture, TRAP staining). The data set is classed as cell-based, mice. The settings on record: for inhibition at 1 µM: Mus musculus, Osteoclast, 168 h, read-out: Inhibition of osteoclast differentiation (%). As for the experimental part: The effect of the benzamidine derivative of the present invention on osteoclast formation and differentiation process was evaluated via co-culture with an osteoblast.
Tibia was aseptically ectomized from 6 to 8-week-old male ddY mice to harvest bone marrow cells by using a syringe (21G, Korea Green Cross). The bone marrow cells were suspended in 5 mL of an α-MEM medium (Gibco BRL Co., supplemented with sodium bicarbonate (2.0 g/L), streptomycin (100 mg/L) and penicillin ([…]), filtered and then sterilized). The harvested cells were centrifuged at 600×g for 5 minutes to collect the whole quantity. To remove the red blood cells in the bone marrow cells, 3 mL of Tris HCl (0.83% NH4Cl, pH 7.5) was added and well mixed. After centrifugation, the numbers of the eukaryotic cells in the harvested bone marrow cells were counted, and then immediately used for a co-culture system.
The progenitor bone and the parietal bone were aseptically ectomized from 1 to 2-day-old neonatal ICR mice, washed with a phosphate butter solution (PBS), and treated with a mixed enzyme solution (0.2% collagenase and 0.1% dispase) six to seven times (10, 10, 10, 20, 20 and 20 min), and then 3 to 6 groups of the cells, in which a large volume of cells having osteoblastic characteristics were contained, were intensively collected, and washed with medium (serum-free α-MEM). The washed cells were cultured in the α-MEM medium containing 10% FBS for 2 to 3 days. After sub-culturing, the collected cells were used for this experiment, and diluted to a concentration of 1×10^6 cells/mL for storage at −70° C.
The benzamidine derivative of the present invention was dissolved in a sterile distilled water or ethanol to be diluted to a desired concentration. The final volume of the sample added to the cell culture medium was set at a ratio of 1:1000.
The bone marrow cells prepared in the above 1-1 and the osteoblast were co-cultured. Both the bone marrow cells (25,000 cells/cm^2) and the osteoblast (10,000 cells/cm^2) were plated in a 96-well plate using α-MEM medium containing FBS, and then cultured with the samples to be tested for 7 days. Differentiation factors, such as dexamethasone (10^−7 M) and vitamin D (10^−8 M), were also co-added to the medium from the first day of cultivation. The medium was changed with a fresh media containing a mixture of the samples and the differentiation factors every 2 to 3 days.
TRAP was used as a marker to measure the matured osteoclast in consideration of its characteristics showing a positive reaction to a TRAP staining solution.
The TRAP staining solution was prepared in such the manner that 5 mg of naphthol AS-MS phosphate (sigma N-4875) as a substrate and 25 mg of a coloring agent (Fast Red Violet LB salt) were dissolved in N,N-dimethylformamide (about 0.5 mL). 50 ml of a 0.1 N […] buffer solution containing 50 mM tartaric acid (pH 5.0) was added thereto, and the mixture was stored in a refrigerator prior to use as a staining solution.
After culturing the cells for 7 days, the medium was removed from the wells, the cells were once washed with PBS, and then fixed with PBS containing 10% formalin for 2 to 5 min. The cells were fixed again in a mixed solution of ethanol and acetone (1/1) for about 1 min, and dried off. The cells were further treated by the TRAP staining solution for 15 minutes, and washed with water and dried off. The osteoclasts with 3 or more nuclei showing a TRAP-positive reaction were counted under a microscopic examination. Each of tests was confirmed at least three times. The inhibitory effect on osteoclast differentiation of each experimental group, relative to negative controls, was expressed as a percentage (%).

Another data set relates to HOS. In words: Cytotoxicity test (MTT), HOS. The data set is classed as cell-based. The settings on record: 10^−6 M, cultured for 72 hrs, in comparison with the control group. As for the experimental part:
as §1, §2

Another data set concerns calvaria. In words: Cytotoxicity test (MTT), calvaria. The data set is classed as cell-based. To be noted: 10^−6 M, cultured for 72 hrs, in comparison with the control group. As for the experimental part:
as §1, §2

Where [2] appears, read: 1 μm, 7 days co-culture, TRAP-positive osteoclasts with 3 or more nuclei, relative to negative controls.

Where two headings read alike, the source gives them in different places.

The term inhibition denotes the drop in the measured response relative to a control, in per cent. In the case of `Cc1nc(-c2ccc(OCCCCCOc3ccc(C(=N)NO)cc3)cc2)c(N2CCOCC2)s1` [Example 1, N-hydroxy-4-{5-[4-(2-methyl-5-morpholin-4-yl-thiazol-4-yl)-phenoxy]-pentyloxy}-benzamidine], the figures for the Cell survival rate in the data set on MC3T3-E1, in the data set with HOS and in the data set on calvaria were 85.9%, 105.6% and 91.5%, respectively. For the same compound, the inhibition at 1 µM in data set [1] (setting [2]) was 94%.

With `Cc1nc(-c2ccc(OCCCCCOc3ccc(C(=N)NO)cc3)cc2)c(CN2CCCC2)s1` [Example 19, N-hydroxy-4-{5-[4-(2-methyl-5-pyrrolidin-1-ylmethyl-thiazol-4-yl)-phenoxy]-pentyloxy}-benzamidine], the Cell survival rate is recorded as 103% in the data set with MC3T3-E1, 90% in the data set with HOS and 97% with calvaria. The inhibition at 1 µM in data set [1] (setting [2]) was 100%.

With `Cc1nc(-c2ccc(OCCCCCOc3ccc(C(=N)NO)cc3)cc2)c(N(C)C)s1` [Example 41], the results for the Cell survival rate with MC3T3-E1, with HOS and with calvaria were 91%, 107% and 93%, respectively. In data set [1] (setting [2]), the “Inhibition of osteoclast differentiation (%)” value is 94%.

On to `N=C(NO)c1ccc(OCCCCCOc2ccc(-c3nc(N4CCOCC4)sc3CN3CCOCC3)cc2)cc1` [Example 51, N-hydroxy-4-{5-[4-(2-morpholin-4-yl-5-morpholin-4-ylmethyl-thiazol-4-yl)-phenoxy]-pentyloxy}-benzamidine], for which the Cell survival rate came to 88% in the data set on MC3T3-E1, 91% in the data set with HOS and 102% with calvaria. Besides, the inhibition at 1 µM in data set [1] (setting [2]) worked out at 95%.

For `Cc1nc(-c2ccc(OCCCCCOc3ccc(C(=N)NO)cc3)cc2)c(CN2CCN(C)CC2)s1` [Example 9, N-hydroxy-4-(5-{4-[2-methyl-5-(4-methyl-piperazin-1-ylmethyl)-thiazol-4-yl]-phenoxy}-pentyloxy)-benzamidine], the Cell survival rate with MC3T3-E1 is on record as 98.8%; in the data set with HOS, 95%; in the data set on calvaria, 92.3%. The inhibition at 1 µM in data set [1] was 96.4%.

Take `Cc1nc(-c2ccc(OCCCCCOc3ccc(C(=N)NO)cc3)cc2)c(NC(=O)c2ccncc2)s1` [Example 38, N-hydroxy-4-[5-(4-{2-methyl-5-[(pyridine-4-carbonyl)-amino]-thiazol-4-yl}-phenoxy)-pentyloxy]-benzamidine]: the values for the Cell survival rate with MC3T3-E1, in the data set with HOS and in the data set on calvaria were 100.0%, 117.6% and 94.6%, respectively. Also, in data set [1] (setting [2]), the inhibition at 1 µM is 78.6%.

`N=C(NO)c1ccc(OCCCCCOc2ccc(-c3nc(-c4cccnc4)sc3N)cc2)cc1` [Example 47, N-hydroxy-4-{5-[4-(5-amino-2-pyridin-3-yl-thiazol-4-yl)-phenoxy]-pentyloxy}-benzamidine]: the Cell survival rate with MC3T3-E1 is 97%; in the data set with HOS, 112%; with calvaria it was 99%. In addition, the inhibition at 1 µM in data set [1] (setting [2]) turned out to be 86%.

As for `N=C(NO)c1ccc(OCCCCCOc2ccc(-c3nc(N)sc3N3CCOCC3)cc2)cc1` [Example 3, N-hydroxy-4-{5-[4-(2-amino-5-morpholin-4-yl-thiazol-4-yl)-phenoxy]-pentyloxy}-benzamidine], the Cell survival rate is recorded as 94.6% in the data set with MC3T3-E1, 89.0% in the data set with HOS and 97.7% with calvaria. The inhibition at 1 µM in data set [1] (setting [2]) is 73.2%.

Consider `Cc1nc(-c2ccc(OCCCCCOc3ccc(C(=N)NO)cc3)cc2)c(NC(=O)c2cccnc2)s1` [Example 39, N-hydroxy-4-[5-(4-{2-methyl-5-[(pyridine-3-carbonyl)-amino]-thiazol-4-yl}-phenoxy)-pentyloxy]-benzamidine], for which the Cell survival rate with MC3T3-E1 was 95.0%; with HOS, 92.1%; with calvaria, 86.3%. The inhibition at 1 µM in data set [1] (setting [2]) was 65.5%.

On to `CN(CCO)c1nc(-c2ccc(OCCCCCOc3ccc(C(=N)NO)cc3)cc2)c(CN2CCOCC2)s1` [Example 25, N-hydroxy-4-[5-(4-{2-[(2-hydroxy-ethyl)-methyl-amino]-5-morpholin-4-ylmethyl-thiazol-4-yl}-phenoxy)-pentyloxy]-benzamidine], for which the Cell survival rate is 100% in the data set on MC3T3-E1, 86% in the data set on HOS and 86% in the data set with calvaria. In addition, the inhibition at 1 µM in data set [1] worked out at 100%.

With `Cc1nc(-c2ccc(OCCCCCOc3ccc(C(=N)NO)cc3)cc2)c(N)s1` [Example 46, N-hydroxy-4-{5-[4-(5-amino-2-methyl-thiazol-4-yl)-phenoxy]-pentyloxy}-benzamidine], the values for the Cell survival rate in the data set with MC3T3-E1, with HOS and with calvaria were 90%, 106% and 95%, respectively. In data set [1] (setting [2]), the inhibition at 1 µM was determined as 88%.

`CN(C)c1sc(-c2ccccc2)nc1-c1ccc(OCCCCCOc2ccc(C(=N)NO)cc2)cc1` [Example 42, N-hydroxy-4-{5-[4-(5-dimethylamino-2-phenyl-thiazol-4-yl)-phenoxy]-pentyloxy}-benzamidine]: the figures for the Cell survival rate in the data set on MC3T3-E1, with HOS and in the data set with calvaria were 91%, 100% and 98%, respectively. Further, the inhibition at 1 µM in data set [1] (setting [2]) worked out at 49%.

The values above are taken from patent publication US20100249402A1, “NOVEL BENZAMIDINE DERIVATIVES, PROCESS FOR THE PREPARATION THEREOF AND PHARMACEUTICAL COMPOSITION FOR PREVENTING OR TREATING OSTEPOROSIS COMPRISING THE SAME” (DONG WHA PHARMACEUTICAL CO. LTD., priority 2007, published 2010).
